Assay results: publication PMC6375636, “Monotherapy with a low-dose lipopeptide HIV fusion inhibitor maintains long-term viral suppression in rhesus macaques” (PLoS Pathogens, 2019)
Peptide text beside a SMILES is read from it. * marks the point of attachment. Stearoyl = CCCCCCCCCCCCCCCCCC(=O)*

Legend:
[1] = in vivo; conditions: rhesus monkey, sc, 3 mg/kg
Method: (§1) A single-cycle infection assay was performed to determine the inhibitory activity of the monkey sera on HIV-1NL4-3 pseudovirus. The 50% effective concentration was defined as the fold serum dilution that inhibited 50% of virus infection.

[2] = test system: HIV-1NL4-3 pseudovirus; assay: Ex vivo inhibitory activity of sera from monkeys administrated LP-80 (single-cycle infection assay); assay type: in vivo, Chinese rhesus macaques; conditions: monkey sera after SC 3 mg/kg
Method: as §1

CCCCCCCCCCCCCCCCCC(=O)NCCCC[C@H](NC(=O)[C@H](CCC(=O)O)NC(=O)[C@H](CC(C)C)NC(=O)[C@H](CCCCN)NC(=O)[C@H](CCCCN)NC(=O)[C@H](CC(C)C)NC(=O)[C@H](CCC(=O)O)NC(=O)[C@H](CCC(=O)O)NC(=O)[C@H](CCC(=O)O)NC(=O)[C@H](CC(N)=O)NC(=O)[C@H](CCCCN)NC(=O)[C@H](CCCCN)NC(=O)[C@H](CCC(N)=O)NC(=O)[C@H](CCC(N)=O)NC(=O)[C@H](CCC(=O)O)NC(=O)[C@H](CCC(=O)O)NC(=O)[C@H](C)NC(=O)[C@H](CCCCN)NC(=O)[C@H](CCCCN)NC(=O)[C@H](CC(C)C)NC(=O)[C@H](CC(C)C)NC(=O)[C@H](CCC(=O)O)NC(=O)[C@H](CCC(=O)O)NC(=O)[C@@H](NC(=O)[C@H](CCCCN)NC(=O)[C@H](CCC(N)=O)NC(=O)[C@H](CCC(=O)O)NC(=O)[C@H](Cc1c[nH]c2ccccc12)NC(C)=O)[C@@H](C)CC)C(N)=O [LP-80] (Ac-WEQKIEELLKKAEEQQKKNEEELKKLEK(Stearoyl)-NH2)
AUC(0-inf) [1]: 601 ± 29.3 µg·h/mL | AUC(0-t) [1]: 601 ± 29.3 µg·h/mL | CL/F [1]: 5 mL/h/kg | Cmax [1]: 24800 ± 10800 ng/mL | MRT [1]: 23.7 ± 2.26 h | Tmax [1]: 5.83 ± 3.82 h | Vd/F [1]: 0.0989 ± 0.0034 L/kg | half-life [1]: 13.7 ± 0.86 h | Time of peak serum inhibitory activity after injection [2]: 6 to 8 h
